Assays:
[1] = tested on: EV-A71 RNA; assay: Entry bypass assay (EV-A71 RNA transfection); assay type: cell-based, human enterovirus A71 (EV-A71) strain 41; details: 12 hpi
Method: (§1) To confirm this finding, assays to investigate the effect of ZAF-47 on EV-A71 entry into cells were performed. With pre-treatment assay, we first treated the cells with different concentrations of ZAF-47 before subjecting them to EV-A71 infection. The aim was to investigate if ZAF-47 was able to bind to host surface receptors which would prevent the virions from binding and thus blocking viral entry. […] Even at the highest concentration, the reduction in viral titre (0.8 log10 PFU/mL decrease) was not as pronounced as post-treatment and could likely be due to drug toxicity. Thus, it is unlikely that ZAF-47 inhibits EV-A71 infection by binding with host receptors to block viral entry. With co-treatment assay, we first treated EV-A71 virions with ZAF-47 for 30 min before infecting the cells. The aim was to investigate if ZAF-47 was able to bind to viral surface proteins which would prevent the virions from binding to the host receptors and thus blocking viral entry. […] Thus, it is unlikely that ZAF-47 blocks EV-A71 entry into host cells by binding to viral surface proteins. Instead, using entry bypass assay, we were able to deduce that ZAF-47 most likely targets EV-A71 post-entry stages. […]
(§2) Seeded 24-well plates, with 1.5 × 10^5 RD cells per well, were incubated overnight at 37 °C with 5% CO2. […] The plates were frozen down at 12 hpi for viral titre quantification using viral plaque assay.

[2] = tested on: EV-A71 virions; assay: Co-treatment assay; assay type: cell-based, human enterovirus A71 (EV-A71) strain 41; details: 20 µM with virions for 30 min, 12 hpi
Method: as §1, §2

[3] = tested on: CV-A16; assay: Post-treatment assay, antiviral spectrum; assay type: cell-based, Coxsackievirus A16
Method: We were also interested in the antiviral potential of ZAF-47 against other Enteroviruses. As such, we performed post-treatment assay on RD cells infected with other Enteroviruses such as CV-A16, CV-A6, Echo7, CV-B5, CV-A24 and EV-D68.
To determine the inhibitory profiles of the hits, post treatment assay was performed. Seeded 24-well plates, with 1.5 × 10^5 RD cells per well, were incubated overnight at 37 °C with 5% CO2. The seeded cells were infected with EV-A71 (100 µL per well, MOI = 1) for 1 h at 37 °C with 5% CO2 and then rinsed with 1 mL of PBS twice. […]
Measurement of the viral titres from collected supernatants was derived from viral plaque assays. To do this, 24-well plates, seeded with 2.4 × 10^5 RD cells per well, were used in plaque assays for EV-A71, EV-D68, Echo7, CV-A6, CV-A16 and CV-A24 while 24-well plates, seeded with 1.2 × 10^5 Vero cells per well, were used in plaque assays for CV-B5. Seeded cells were incubated overnight at 37 °C with 5% CO2. Viral supernatants were diluted from 10^−1 to 10^−7 in reduced serum DMEM before infecting the cells with a volume of 100 µL for 1 h at 37 °C with 5% CO2 (33 °C instead for EV-D68). Cells were rinsed twice with PBS before overlaying with 1 mL of reduced serum DMEM containing 0.5% agarose (Vivantis, Shah Alam, Malaysia). […] Subsequent formation of viral plaques was counted manually to quantify the viral titre in PFU/mL […]

## CC(=O)OC[C@]1(C)C(=O)CC[C@@]2(C)C(C/C=C3/C(=O)OC[C@@H]3Oc3cccc4cccnc34)=C(C)CC[C@@H]21 [ZAF-47, (14β)-(8′-Quinolinoxy)-3-ketone-9-dehydro-17-hydro-19-acetoxy–andrographolide]
[1]; 10 µM
  viral reduction: 0.9 log
[1]; 20 µM
  viral reduction: 2.6 log
[2]
  viral titre versus DMSO treatment: no significant difference
[3]; 10 µM, CV-A16-infected RD cells
  viral titre: reducing the viral titres of the above-listed enteroviruses significantly
[3]; CVA16, CV-A16, Enterovirus A, drug treatment duration 16 h, RD cells
  IC50: 1380 nM

— article PMC8880313, “Discovery of Novel Andrographolide Derivatives as Antiviral Inhibitors against Human Enterovirus A71” (Pharmaceuticals, 2022)
